In ChEMBL document CHEMBL5584304, “Unlocking the Potential of Glutinol: Structural Diversification and Antifungal Activity against Phytopathogenic Fusarium Strains” (2024):

Experiments:
Assay type in all cases: functional
Conditions in all cases: time 24-48 hrs
[1] = test system: Fusarium solani; test: Antifungal activity against Fusarium solani measured after 24 to 48 hrs by turbidimetry
[2] = test system: Fusarium tucumaniae; test: Antifungal activity against Fusarium tucumaniae measured after 24 to 48 hrs by turbidimetry
[3] = test system: Fusarium graminearum; test: Antifungal activity against Fusarium graminearum measured after 24 to 48 hrs by turbidimetry

Row | SMILES | MIC [1] | MIC [2] | MIC [3]
1 | CC1(C)CC[C@]2(C)CC[C@]3(C)[C@H]4CC=C5[C@@H](CC[C@H](O)C5(C)C)[C@]4(C)CC[C@@]3(C)[C@@H]2C1 [GLUTINOL] | > 50 µg/mL | 117 µM | > 50 µg/mL
2 | CC1(C)CC[C@]2(C)CC[C@]3(C)[C@H]4CC=C5[C@@H](Cc6sc(N)nc6C5(C)C)[C@]4(C)CC[C@@]3(C)[C@@H]2C1 | > 50 µg/mL | 107 µM | > 50 µg/mL
3 | C=C(C)C1=CC[C@H]2[C@@](C)(CC[C@@]3(C)[C@@H]4CC(C)(C)CC[C@]4(C)CC[C@]23C)[C@@H]1CCC#N | 59.2 µM | 59.2 µM | > 50 µg/mL
4 | CC1(C)CC[C@]2(C)CC[C@]3(C)[C@H]4CC=C5C(=Cc6n[nH]c(=S)nc6C5(C)C)[C@]4(C)CC[C@@]3(C)[C@@H]2C1 | 25.4 µM | 102 µM | 50.8 µM
5 | CC1(C)CC[C@]2(C)CC[C@]3(C)[C@H]4C=CC5=C(C=CC(=O)C5(C)C)[C@]4(C)CC[C@@]3(C)[C@@H]2C1 | > 50 µg/mL | 119 µM | > 50 µg/mL
6 | CC1(C)CC[C@]2(C)CC[C@]3(C)[C@H]4CC=C5[C@@H](CC(Br)C(=O)C5(C)C)[C@]4(C)CC[C@@]3(C)[C@@H]2C1 (stereo partly drawn) | > 50 µg/mL | > 50 µg/mL | > 50 µg/mL
7 | CC1(C)CC[C@]2(C)CC[C@]3(C)[C@H]4CC=C5[C@@H](CC(Br)(Br)C(=O)C5(C)C)[C@]4(C)CC[C@@]3(C)[C@@H]2C1 | > 50 µg/mL | 85.9 µM | > 50 µg/mL
8 | CC(=O)O[C@H]1CC[C@@H]([C@]2(C)CC[C@@]3(C)[C@@H]4CC(C)(C)CC[C@]4(C)CC[C@]3(C)[C@H]2CC=O)C(=O)C1(C)C | 49.9 µM | 49.9 µM | 99.8 µM
9 | CC1(C)CC[C@]2(C)CC[C@]3(C)[C@H]4CC=C5[C@@H](CCC(=O)C5(C)C)[C@]4(C)CC[C@@]3(C)[C@@H]2C1 [GLUTINONE] | > 50 µg/mL | 118 µM | 118 µM
10 | COC(=O)N(OC)c1ccccc1COc1ccn(-c2ccc(Cl)cc2)n1 [PYRACLOSTROBIN] | 1.42 µM | 1.01 µM | 1.01 µM
11 | CC1(C)CC[C@]2(C)CC[C@]3(C)c4ccc5c(c4CC[C@@]3(C)[C@@H]2C1)C=CC(=O)C5(C)C | > 50 µg/mL | 123 µM | 123 µM
12 | CC1(C)CC[C@]2(C)CC[C@]3(C)c4ccc5c(c4CC[C@@]3(C)[C@@H]2C1)C=C(Br)C(=O)C5(C)C | > 50 µg/mL | 51.7 µM | 51.7 µM
13 | COC(=O)Nc1nc2ccccc2[nH]1 [CARBENDAZIM] | 4.09 µM | 4.09 µM | 8.18 µM
14 | CC1(C)CC[C@]2(C)CC[C@]3(C)[C@H]4CC=C5C(=CC(=O)C(=O)C5(C)C)[C@]4(C)CC[C@@]3(C)[C@@H]2C1 | 114 µM | > 50 µg/mL | > 50 µg/mL
15 | CC1(C)CC[C@]2(C)CC[C@]3(C)[C@H]4CC=C5C(=CCC(=O)C5(C)C)[C@]4(C)CC[C@@]3(C)[C@@H]2C1 | > 50 µg/mL | > 50 µg/mL | 118 µM
16 | CC1(C)CC[C@]2(C)CC[C@]3(C)[C@H]4CC=C5[C@@H](Cc6cnoc6C5(C)C)[C@]4(C)CC[C@@]3(C)[C@@H]2C1 | 55.8 µM | 55.8 µM | > 50 µg/mL
17 | CC1(C)CC[C@]2(C)CC[C@]3(C)[C@H]4CC=C5C(=Cc6nc7ccccc7nc6C5(C)C)[C@]4(C)CC[C@@]3(C)[C@@H]2C1 | > 50 µg/mL | 98.2 µM | > 50 µg/mL
18 | CC1(C)CC[C@]2(C)CC[C@]3(C)[C@H]4C=CC5=C(C=C(Br)C(=O)C5(C)C)[C@]4(C)CC[C@@]3(C)[C@@H]2C1 | > 50 µg/mL | 100 µM | > 50 µg/mL
19 | CC1(C)CC[C@]2(C)CC[C@]3(C)[C@H]4CC=C5C(C)(C)C(=O)CC[C@@]5(O)[C@]4(C)CC[C@@]3(C)[C@@H]2C1 | 56.7 µM | 113 µM | > 50 µg/mL
20 | N#Cc1c[nH]cc1-c1cccc2c1OC(F)(F)O2 [FLUDIOXONIL] | 12.6 µM | 17.8 µM | 17.8 µM
21 | CC1(C)CC[C@]2(C)CC[C@]3(C)[C@H]4CC=C5[C@@H](CC(C=O)=C(O)C5(C)C)[C@]4(C)CC[C@@]3(C)[C@@H]2C1 | 55.2 µM | 110 µM | 110 µM
22 | CC1(C)CC[C@]2(C)CC[C@]3(C)[C@@H](CC=O)[C@](C)([C@@H]4CC[C@H](O)C(C)(C)C4=O)CC[C@@]3(C)[C@@H]2C1 | 109 µM | 109 µM | 54.5 µM
23 | CC1(C)CC[C@]2(C)CC[C@]3(C)[C@H]4CC=C5[C@@H](Cc6cnn(-c7nc8ccccc8s7)c6C5(C)C)[C@]4(C)CC[C@@]3(C)[C@@H]2C1 | 43 µM | 85.9 µM | 85.9 µM
24 | Cc1cc2c(c(C)c1O)CC[C@H]1[C@@]2(C)CC[C@@]2(C)[C@@H]3CC(C)(C)CC[C@]3(C)CC[C@]12C | > 50 µg/mL | 118 µM | > 50 µg/mL
25 | CC1(C)CC[C@]2(C)CC[C@]3(C)[C@H]4CC=C5[C@@H](Cc6c([nH]c7ccccc67)C5(C)C)[C@]4(C)CC[C@@]3(C)[C@@H]2C1 | > 50 µg/mL | > 50 µg/mL | > 50 µg/mL
26 | CC1(C)CC[C@]2(C)CC[C@]3(C)[C@H]4CC=C5C(=CC6=NC(N)=N[C@]6(O)C5(C)C)[C@]4(C)CC[C@@]3(C)[C@@H]2C1 | > 50 µg/mL | 108 µM | > 50 µg/mL
